Holding throughout (type): cell-based
One test relates to AsPC-1 (G12D) cells. In words: Cell viability assay (CELLTITER-GLO), AsPC-1 cells. To be noted: Homo sapiens, ASPC1, 72 h, Inhibition of cancerous cells, 3 days incubation, luminescence. On the procedure:
AsPC-1, H358, and SW48 cells were cultured in RPMI 1640 media supplemented with 10% fetal bovine serum, streptomycin, and penicillin. Lovo and SW480 cells were cultured in DMEM media supplemented with 10% fetal bovine serum, streptomycin, and penicillin. The cell lines were plated in their respective medium supplemented with 2.5% fetal bovine serum, streptomycin, and penicillin. All cell lines were plated in white walled 96-well plates at 2,000 cells/well or 384-well plates at 500 cells/well, except Lovo, which were plated at 4,000 or 1,000 cells/well, respectively. The cells were incubated in DMSO (control) or a compound for 3 days at 37° C. under 5% CO2. A CELLTITER-GLO® reagent ([…] was then added to each well. After a 10 min incubation with shaking, luminescence was measured using an ENVISION® multimode plate reader. IC50 values are summarized in Table 1.
(Cellular ATP, detected with luciferase, serves as a proxy for viable cell number.)

The subject of a further test is SW480 (G12V) cells. The experiment in a line: Cell viability assay (CELLTITER-GLO), SW480 cells. The following applies: Homo sapiens, 72 h, Inhibition of cancerous cells, 3 days incubation, luminescence. The gist of the method:
(§1)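 Cells plated in medium with 2.5% FBS and exposed to compound (DMSO control) for 3 days at 37° C., 5% CO2. Viability read as luminescence after CellTiter-Glo addition and 10 min shaking; IC50 values derived.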

In another test the test system is SW48 (wt) cells. In words: Cell viability assay (CELLTITER-GLO), SW48 cells. The following applies: Homo sapiens, 72 h, Inhibition of cancerous cells, 3 days incubation, luminescence. The gist of the method: as §1
The subject of the next test is H358 (G12C) cells. In words: Cell viability assay (CELLTITER-GLO), H358 cells. To be noted: Homo sapiens, NCI-H358, 72 h, Inhibition of cancerous cells, 3 days incubation, luminescence. A digest of the protocol:
as §1

The test system of the next test is Lovo (G13D) cells. The experiment in a line: Cell viability assay (CELLTITER-GLO), Lovo cells. The following applies: Homo sapiens, 72 h, Inhibition of cancerous cells, 3 days incubation, luminescence. A digest of the protocol: as §1

The values that follow come from patent US20240197888A1, “SOS1 PROTEIN DEGRADERS, PHARMACEUTICAL COMPOSITIONS THEREOF, AND THEIR THERAPEUTIC APPLICATIONS” (BioTheryX, Inc., priority 2021, published 2024).

The term IC50 denotes the concentration that inhibits the measured activity by half. Higher therefore signals lower potency. `CNCc1ccccc1-c1csc([C@@H](C)Nc2nc(C)nc3cc(OCCCCCCC(=O)N4CCCCC4)c(OC)cc23)c1` [Compound A68, (R)-7-((6-Methoxy-2-methyl-4-((1-(4-(2-((methylamino)methyl)phenyl)thiophen-2-yl)ethyl)amino)quinazolin-7-yl)oxy)-1-(piperidin-1-yl)heptan-1-one]: the IC50 with AsPC-1 (G12D) cells came to 1.5 µM; with SW480 (G12V) cells, 0.36 µM; in the test with SW48 (wt) cells, 0.55 µM; in the test on H358 (G12C) cells it was 0.65 µM; in the test on Lovo (G13D) cells it was 0.36 µM.

For `CNCc1ccccc1-c1csc([C@@H](C)Nc2nc(C)nc3cc(OCCCCCCCN4CCC(C(F)(F)F)CC4)c(OC)cc23)c1` [Compound A67, (R)-6-Methoxy-2-methyl-N-(1-(4-(2-((methylamino)methyl)phenyl)thiophen-2-yl)ethyl)-7-((7-(4-(trifluoromethyl)piperidin-1-yl)heptyl)oxy)quinazolin-4-amine], the IC50 turned out to be 0.59 µM with AsPC-1 (G12D) cells; 0.44 µM in the test on SW480 (G12V) cells; 0.53 µM with SW48 (wt) cells; 1.2 µM in the test on H358 (G12C) cells; 0.54 µM with Lovo (G13D) cells.
